Patent US20120149080A1, “YEAST PRODUCTION CULTURE FOR THE PRODUCTION OF BUTANOL” (Butamax(TM) Advanced Biofuels LLC, priority 2010, published 2012)

Columns and labels:
Assay in all cases: Glucose consumption rate in high cell density culture in YPD
Assay type in all cases: cell-based
Settings in all cases: about 3.9 gdcw/L
[1] = tested on: Saccharomyces cerevisiae PNY0571
Source text: (§1) S. cerevisiae strains used were PNY0569 CEN.PK122 (MATa MAL2-8c SUC2/MATalpha MAL2-8c SUC2) and PNY0571 (CEN.PK 113-7D MATa MAL2-8c SUC2), obtained from Centraalbureau voor Schimmelcultures, Fungal and Yeast Collection (Netherlands) as well as PNY0602 and PNY0614. PNY0602 and PNY0614 were isolated from a mutagenized culture of PNY0571. PNY0571 (CEN.PK 113-7D) was subjected to 10 rounds of chemical mutagenesis with N-methyl-N′-nitro-N-nitrosoguanidine (NTG) and ethylmethane sulfonate (EMS) using standard methods (Barbour, L., M. Hanna and W. Xiao. 2006. Mutagenesis, p. 121-127. In W. Xiao (ed.), Yeast Protocols, Second Edition. Humana Press, NJ). Cells were grown overnight in 10 ml of YPD at 30° C. with shaking. The overnight culture was centrifuged, and the pellet was resuspended in 50 mM potassium phosphate buffer, pH 7.0. The cells were again centrifuged and resuspended in 10 ml of the same buffer. A portion of the resuspended cells (2.5 ml) was transferred to a plastic 15 ml screw cap centrifuge tube, and the cells were treated with NTG (10 μg/ml final concentration) or EMS (3% w/v) for 40 minutes at 30° C. without shaking. The mutagen was inactivated by addition of an equal volume of filter sterilized 10% (w/v) sodium thiosulfate. The treated cells were centrifuged and resuspended in water two times. The treatment protocol involved repeated cycles of treating yeast cells with one of the mutagens (e.g., NTG), allowing the surviving cells to grow out overnight in YPD with 1% isobutanol, and then treating the overnight culture with the other mutagen (e.g., EMS). After the fifth cycle (i.e., a total of ten treatments with mutagen), cells were screened for isobutanol tolerance. PNY0602 was isolated after prolonged (24 h) exposure to 3.0% isobutanol. PNY0614 was isolated after 5 cycles of repeated freezing and thawing of the mutagenized culture by resuspending mutagenized cells in distilled water and transferring the cells to dry-ice ethanol bath and a 37° C. water bath for 20 minutes each.
(§2) Glucose consumption rates in the presence of isobutanol in YPD were also determined when the cell concentration was about 8 O.D. (about 3.9 gdcw/L). Saccharomyces cerevisiae strains PNY0571, PNY0602 and PNY0614 were plated from a freezer vial onto YPD agar (Teknova, Hollister, Calif.; Cat. #Y1000) and incubated overnight at 30° C. Cells from the YPD plate were inoculated into a 25 ml pre-culture of YPD broth (Teknova, Hollister, Calif.; Cat. #Y5000) with an initial OD600 of 0.06 to 0.08, and this culture was grown for 7 hours in an air shaker at 30° C. An aliquot of the pre-culture was inoculated into 200 ml of YPD broth with an initial OD600 of 0.06 to 0.08, and this culture was incubated with aeration at 30° C. for approximately 17 hours. The optical density of the culture was determined, the culture was centrifuged and the cells were resuspended in fresh YPD broth to yield an OD600 of 8. At this point, an aliquot of 10 ml of the culture was used for a dry cell weight determination, which gave dry cell weight in the range of 3.89 gdcw/L.
(§3) 20 ml cultures were transferred to flasks that contained 0.0%, 0.5%, 0.75%, 1.0%, 1.25%, 1.5%, 1.75%, 2.0% and 2.5% isobutanol. Time of addition of cells was referred to as 0 hours. At various times samples (500 to 700 ul) were transferred to a tube containing an equal volume of 10% TCA. Samples were centrifuged and glucose determined in the YSI glucose analyzer (YSI 2700 Select).

[2] = tested on: Saccharomyces cerevisiae PNY0602
Source text: as §1, §2, §3

[3] = tested on: Saccharomyces cerevisiae PNY0614
Source text: as §1, §2, §3

## CC(C)CO [Isobutanol, isobutanol]
[1]; PNY0571, 0.5% isobutanol
  Glucose consumed per gdcw per hour: 2.1 per gdcw per hour
[1]; PNY0571, 0.75% isobutanol
  Glucose consumed per gdcw per hour: 2.0 per gdcw per hour
[1]; PNY0571, 1% isobutanol
  Glucose consumed per gdcw per hour: 1.9 per gdcw per hour
[1]; PNY0571, 1.5% isobutanol
  Glucose consumed per gdcw per hour: 1.0 per gdcw per hour
[1]; PNY0571, 1.75% isobutanol
  Glucose consumed per gdcw per hour: 0.8 per gdcw per hour
[1]; PNY0571, 2% isobutanol
  Glucose consumed per gdcw per hour: 0.6 per gdcw per hour
[1]; PNY0571, 2.5% isobutanol
  Glucose consumed per gdcw per hour: 0.3 per gdcw per hour
[2]; PNY0602, 0.5% isobutanol
  Glucose consumed per gdcw per hour: 3.0 per gdcw per hour
[2]; PNY0602, 0.75% isobutanol
  Glucose consumed per gdcw per hour: 2.9 per gdcw per hour
[2]; PNY0602, 1% isobutanol
  Glucose consumed per gdcw per hour: 2.7 per gdcw per hour
[2]; PNY0602, 1.5% isobutanol
  Glucose consumed per gdcw per hour: 1.5 per gdcw per hour
[2]; PNY0602, 1.75% isobutanol
  Glucose consumed per gdcw per hour: 1.1 per gdcw per hour
[2]; PNY0602, 2% isobutanol
  Glucose consumed per gdcw per hour: 0.9 per gdcw per hour
[2]; PNY0602, 2.5% isobutanol
  Glucose consumed per gdcw per hour: 0.5 per gdcw per hour
[3]; PNY0614, 0.5% isobutanol
  Glucose consumed per gdcw per hour: 2.9 per gdcw per hour
[3]; PNY0614, 0.75% isobutanol
  Glucose consumed per gdcw per hour: 2.8 per gdcw per hour
[3]; PNY0614, 1% isobutanol
  Glucose consumed per gdcw per hour: 2.6 per gdcw per hour
[3]; PNY0614, 1.5% isobutanol
  Glucose consumed per gdcw per hour: 1.4 per gdcw per hour
[3]; PNY0614, 1.75% isobutanol
  Glucose consumed per gdcw per hour: 1.0 per gdcw per hour
[3]; PNY0614, 2% isobutanol
  Glucose consumed per gdcw per hour: 0.8 per gdcw per hour
[3]; PNY0614, 2.5% isobutanol
  Glucose consumed per gdcw per hour: 0.4 per gdcw per hour
